System: MV-4-11 cells
Test: Gene expression microarray analysis (Affymetrix PrimeView) and GSEA
Assay type: cell-based, human
Parameters: RFU PODN (11730768_x_at) / Fold change /veh PODN (11730768_x_at) / RFU LINC00158 (11744669_a_at) / Fold change /veh LINC00158 (11744669_a_at) / RFU DUSP10 (11751237_a_at) / Fold change /veh DUSP10 (11751237_a_at) / RFU ID3 (11757404_x_at) / Fold change /veh ID3 (11757404_x_at) / RFU PLEKHG5 (11737974_s_at) / Fold change /veh PLEKHG5 (11737974_s_at) / RFU LRRC4B (11730491_at) / Fold change /veh LRRC4B (11730491_at) / RFU GIMAP4 (11747438_a_at) / Fold change /veh GIMAP4 (11747438_a_at) / RFU KRT8 (11758183_x_at) / Fold change /veh KRT8 (11758183_x_at) / RFU CNN1 (11734310_a_at) / Fold change /veh CNN1 (11734310_a_at) / RFU VPS37D (11726825_at) / Fold change /veh VPS37D (11726825_at) / RFU C10orf10 (11716522_x_at) / Fold change /veh C10orf10 (11716522_x_at) / RFU KIR2DL2 /// KIR2DL4 /// KIR2DL5A /// KIR2DL5B /// KIR2DS1 /// KIR2DS2 /// KIR2DS3 /// KIR2DS4 /// KIR3DL3 /// KIR3DL3 /// KIR3DS1 (11738374_at) / Fold change /veh KIR2DL2 /// KIR2DL4 /// KIR2DL5A /// KIR2DL5B /// KIR2DS1 /// KIR2DS2 /// KIR2DS3 /// KIR2DS4 /// KIR3DL3 /// KIR3DL3 /// KIR3DS1 (11738374_at) / RFU C1QL1 (11718748_at) / Fold change /veh C1QL1 (11718748_at) / RFU TMPRSS4 (11747572_a_at) / Fold change /veh TMPRSS4 (11747572_a_at) / RFU HAMP (11756126_x_at) / Fold change /veh HAMP (11756126_x_at) / RFU RNFT2 (11725882_a_at) / Fold change /veh RNFT2 (11725882_a_at) / RFU NR4A2 (11747474_a_at) / Fold change /veh NR4A2 (11747474_a_at) / RFU ABCC12 (11746883_a_at) / Fold change /veh ABCC12 (11746883_a_at) / RFU TMEM136 (11760407_x_at) / Fold change /veh TMEM136 (11760407_x_at) / RFU CLDN22 /// WWC2 (11732394_at) / Fold change /veh CLDN22 /// WWC2 (11732394_at) / RFU HLA-DPB1 (11760878_x_at) / Fold change /veh HLA-DPB1 (11760878_x_at) / RFU SPINT1 (11716480_a_at) / Fold change /veh SPINT1 (11716480_a_at) / RFU GAP43 (11754022_s_at) / Fold change /veh GAP43 (11754022_s_at) / RFU A4GNT (11735810_at) / Fold change /veh A4GNT (11735810_at) / RFU PRB3 (11715151_x_at) / Fold change /veh PRB3 (11715151_x_at) / RFU TUBB4B (11761932_at) / Fold change /veh TUBB4B (11761932_at) / RFU CAPN14 (11732068_a_at) / Fold change /veh CAPN14 (11732068_a_at) / RFU TMCC2 (11721928_a_at) / Fold change /veh TMCC2 (11721928_a_at) / RFU IRGQ (11745062_a_at) / Fold change /veh IRGQ (11745062_a_at) / RFU FAM174B (11720279_a_at) / Fold change /veh FAM174B (11720279_a_at) / RFU TMPRSS4 (11748680_a_at) / Fold change /veh TMPRSS4 (11748680_a_at) / RFU FAM212B (11763350_a_at) / Fold change /veh FAM212B (11763350_a_at) / RFU PLEKHG5 (11743358_a_at) / Fold change /veh PLEKHG5 (11743358_a_at) / RFU ZSCAN30 (11745921_a_at) / Fold change /veh ZSCAN30 (11745921_a_at) / RFU CMKLR1 (11741424_a_at) / Fold change /veh CMKLR1 (11741424_a_at) / RFU LOC101060620 /// MAPK8IP1 (11723275_at) / Fold change /veh LOC101060620 /// MAPK8IP1 (11723275_at) / RFU SPTSSB (11747773_x_at) / Fold change /veh SPTSSB (11747773_x_at) / RFU PRSS12 (11739890_at) / Fold change /veh PRSS12 (11739890_at) / RFU BIN1 (11741810_x_at) / Fold change /veh BIN1 (11741810_x_at) / RFU WNT11 (11732464_a_at) / Fold change /veh WNT11 (11732464_a_at) / RFU C10orf10 (11716521_a_at) / Fold change /veh C10orf10 (11716521_a_at) / RFU C5orf56 (11738089_at) / Fold change /veh C5orf56 (11738089_at) / RFU CYB561 (11721691_x_at) / Fold change /veh CYB561 (11721691_x_at) / RFU ANKRD19P (11752326_a_at) / Fold change /veh ANKRD19P (11752326_a_at) / RFU OR2T12 /// OR2T33 /// OR2T8 (11738714_s_at) / Fold change /veh OR2T12 /// OR2T33 /// OR2T8 (11738714_s_at) / RFU VCAN (11748164_a_at) / Fold change /veh VCAN (11748164_a_at) / RFU JSRP1 (11732532_at) / Fold change /veh JSRP1 (11732532_at) / RFU KRTAP10-11 (11738290_x_at) / Fold change /veh KRTAP10-11 (11738290_x_at) / RFU MYO3A (11730013_a_at) / Fold change /veh MYO3A (11730013_a_at) / RFU EBF3 (11725865_a_at) / Fold change /veh EBF3 (11725865_a_at) / RFU CAMK2N1 (11719241_x_at) / Fold change /veh CAMK2N1 (11719241_x_at) / RFU C5orf56 (11738088_a_at) / Fold change /veh C5orf56 (11738088_a_at) / RFU OLFML3 (11715873_a_at) / Fold change /veh OLFML3 (11715873_a_at) / RFU LOC100653217 /// NTM (11731650_a_at) / Fold change /veh LOC100653217 /// NTM (11731650_a_at) / RFU MAPK11 (11762145_a_at) / Fold change /veh MAPK11 (11762145_a_at) / RFU FIZ1 (11724087_x_at) / Fold change /veh FIZ1 (11724087_x_at) / RFU OASL (11726364_x_at) / Fold change /veh OASL (11726364_x_at) / RFU SOX15 (11748057_x_at) / Fold change /veh SOX15 (11748057_x_at) / RFU CD79A (11719716_a_at) / Fold change /veh CD79A (11719716_a_at) / RFU HIST1H1D (11736915_at) / Fold change /veh HIST1H1D (11736915_at) / RFU CASKIN2 (11723855_a_at) / Fold change /veh CASKIN2 (11723855_a_at) / RFU LOC730098 (11760151_x_at) / Fold change /veh LOC730098 (11760151_x_at) / RFU OR4N2 (11742367_at) / Fold change /veh OR4N2 (11742367_at) / RFU PRRT2 (11749266_a_at) / Fold change /veh PRRT2 (11749266_a_at) / RFU SNX32 (11753110_a_at) / Fold change /veh SNX32 (11753110_a_at) / RFU CDHR5 (11726645_a_at) / Fold change /veh CDHR5 (11726645_a_at) / RFU RCAN1 (11760418_a_at) / Fold change /veh RCAN1 (11760418_a_at) / RFU FAM167A (11723789_a_at) / Fold change /veh FAM167A (11723789_a_at) / RFU FAM26E (11764081_at) / Fold change /veh FAM26E (11764081_at) / RFU ISYNA1 (11749810_s_at) / Fold change /veh ISYNA1 (11749810_s_at) / RFU ACY1 (11761880_at) / Fold change /veh ACY1 (11761880_at) / RFU 11764098_at / Fold change /veh 11764098_at / RFU SAMD14 (11745864_x_at) / Fold change /veh SAMD14 (11745864_x_at) / RFU NPB (11741838_a_at) / Fold change /veh NPB (11741838_a_at) / RFU TMPRSS6 (11731388_a_at) / Fold change /veh TMPRSS6 (11731388_a_at) / RFU KRTAP10-2 (11738614_at) / Fold change /veh KRTAP10-2 (11738614_at) / RFU ARHGAP8 /// PRR5-ARHGAP8 (11727945_x_at) / Fold change /veh ARHGAP8 /// PRR5-ARHGAP8 (11727945_x_at) / RFU KRTAP5-7 /// NADSYN1 (11734609_at) / Fold change /veh KRTAP5-7 /// NADSYN1 (11734609_at) / RFU RASL12 (11751679_a_at) / Fold change /veh RASL12 (11751679_a_at) / RFU CDKN2B (11736163_a_at) / Fold change /veh CDKN2B (11736163_a_at) / RFU PRF1 (11729649_at) / Fold change /veh PRF1 (11729649_at) / RFU, ZNF638 /// ZNF638-IT1 / Fold change vs veh, ZNF638 /// ZNF638-IT1 / RFU, PANK3 / Fold change vs veh, PANK3 / RFU, SH3YL1 / Fold change vs veh, SH3YL1 / RFU, ZEB2 / Fold change vs veh, ZEB2 / RFU, NRIP1 / Fold change vs veh, NRIP1 / RFU, PTTG1IP / Fold change vs veh, PTTG1IP / RFU, CAPN2 / Fold change vs veh, CAPN2 / RFU, MED14 / Fold change vs veh, MED14 / RFU, SNORA58 / Fold change vs veh, SNORA58 / RFU, C1orf63 / Fold change vs veh, C1orf63 / RFU, LRRFIP1 / Fold change vs veh, LRRFIP1 / RFU, NDUFAF7 / Fold change vs veh, NDUFAF7 / RFU, SLC12A2 / Fold change vs veh, SLC12A2 / RFU, IBTK / Fold change vs veh, IBTK / RFU, ESF1 / Fold change vs veh, ESF1 / Fold change vs veh, TMEM50B / RFU, TAOK1 / Fold change vs veh, TAOK1 / RFU, ACBD3 / Fold change vs veh, ACBD3 / RFU, TMA16 / Fold change vs veh, TMA16 / RFU, RWDD3 / Fold change vs veh, RWDD3 / RFU, BCAT1 / Fold change vs veh, BCAT1 / RFU, EDEM3 / Fold change vs veh, EDEM3 / RFU, TMEM33 / Fold change vs veh, TMEM33 / RFU, WDR75 / Fold change vs veh, WDR75 / RFU, AHCTF1 / Fold change vs veh, AHCTF1 / RFU, TFRC / Fold change vs veh, TFRC / RFU, ZDHHC17 / Fold change vs veh, ZDHHC17 / RFU, NOM1 / Fold change vs veh, NOM1 / RFU, ARL8B / Fold change vs veh, ARL8B / RFU, ZBTB11 / Fold change vs veh, ZBTB11 / RFU, TAMM41 / Fold change vs veh, TAMM41 / RFU, KIAA1704 /// LOC100996395 / Fold change vs veh, KIAA1704 /// LOC100996395 / RFU, ING1 / Fold change vs veh, ING1 / RFU, TRMT61B / Fold change vs veh, TRMT61B / RFU, FUBP3 / Fold change vs veh, FUBP3 / RFU, TP53 / Fold change vs veh, TP53 / RFU, TNKS2 / Fold change vs veh, TNKS2 / RFU, ZFP14 / Fold change vs veh, ZFP14 / RFU, ACTR2 / Fold change vs veh, ACTR2 / RFU, PPP3R1 / Fold change vs veh, PPP3R1 / RFU, PIK3R1 / Fold change vs veh, PIK3R1 / RFU, HNRNPA1 / Fold change vs veh, HNRNPA1 / RFU, RNF170 / Fold change vs veh, RNF170 / RFU, ZNF28 / Fold change vs veh, ZNF28 / RFU, RNGTT / Fold change vs veh, RNGTT / RFU, OGT / Fold change vs veh, OGT / RFU, BRD1 / Fold change vs veh, BRD1 / RFU, MARS / Fold change vs veh, MARS / RFU, ZNF655 / Fold change vs veh, ZNF655 / RFU, FAHD1 / Fold change vs veh, FAHD1 / RFU, BDP1 / Fold change vs veh, BDP1 / RFU, LRRCC1 / Fold change vs veh, LRRCC1 / RFU, ARID1A / Fold change vs veh, ARID1A / RFU, ZNF146 / Fold change vs veh, ZNF146 / RFU, ZNF330 / Fold change vs veh, ZNF330 / RFU, GPN3 / Fold change vs veh, GPN3 / RFU, C9orf123 / Fold change vs veh, C9orf123 / RFU, N4BP2L2 / Fold change vs veh, N4BP2L2 / RFU, ARFIP1 / Fold change vs veh, ARFIP1 / RFU, FAM179B / Fold change vs veh, FAM179B / RFU, BCL10 / Fold change vs veh, BCL10 / RFU, UHRF1BP1L / Fold change vs veh, UHRF1BP1L / RFU, BET1 / Fold change vs veh, BET1 / RFU, CNOT2 / Fold change vs veh, CNOT2 / RFU, ZNF268 / Fold change vs veh, ZNF268 / Fold change vs veh, ZNF507 / RFU, DGCR2 / Fold change vs veh, DGCR2 / RFU, WDSUB1 / Fold change vs veh, WDSUB1 / Fold change vs veh, HSP90B1 /// MIR3652 / RFU, ADSS / Fold change vs veh, ADSS / RFU, GK / Fold change vs veh, GK / RFU, ZNF148 / Fold change vs veh, ZNF148 / RFU, TAF9 / Fold change vs veh, TAF9 / RFU, SLC1A5 / Fold change vs veh, SLC1A5 / RFU, SLMO2 / Fold change vs veh, SLMO2 / RFU, ABCC4 / Fold change vs veh, ABCC4 / RFU, LOC101060439 /// RAP1B / Fold change vs veh, LOC101060439 /// RAP1B / RFU, RFX7 / Fold change vs veh, RFX7 / RFU, GTPBP10 / Fold change vs veh, GTPBP10 / RFU, CNEP1R1 / Fold change vs veh, CNEP1R1 / RFU, BIVM-ERCC5 /// ERCC5 / Fold change vs veh, BIVM-ERCC5 /// ERCC5 / RFU, ILF3 / Fold change vs veh, ILF3 / RFU 11762660_at / Fold change /veh 11762660_at / RFU VCAN (11757783_s_at) / Fold change /veh VCAN (11757783_s_at) / RFU DDX43 (11728927_at) / Fold change /veh DDX43 (11728927_at) / RFU KRT8 (11758188_x_at) / Fold change /veh KRT8 (11758188_x_at) / RFU NKD1 (11759106_at) / Fold change /veh NKD1 (11759106_at) / RFU SRD5A1 (11742802_a_at) / Fold change /veh SRD5A1 (11742802_a_at) / RFU TPSAB1 /// TPSB2 (11721975_s_at) / Fold change /veh TPSAB1 /// TPSB2 (11721975_s_at) / RFU GSTM3 (11746129_a_at) / Fold change /veh GSTM3 (11746129_a_at) / RFU IL23R (11737362_x_at) / Fold change /veh IL23R (11737362_x_at) / RFU TMEM51 (11727254_a_at) / Fold change /veh TMEM51 (11727254_a_at) / RFU PIWIL2 (11732686_x_at) / Fold change /veh PIWIL2 (11732686_x_at) / RFU ORM1 (11744905_x_at) / Fold change /veh ORM1 (11744905_x_at) / RFU CCDC152 (11743942_at) / Fold change /veh CCDC152 (11743942_at) / RFU ECM1 (11717891_a_at) / Fold change /veh ECM1 (11717891_a_at) / RFU IL23R (11748794_a_at) / Fold change /veh IL23R (11748794_a_at) / RFU TNFAIP8L3 (11732012_x_at) / Fold change /veh TNFAIP8L3 (11732012_x_at) / RFU MBOAT4 (11741988_at) / Fold change /veh MBOAT4 (11741988_at) / RFU 11764193_at / Fold change /veh 11764193_at / RFU TMEM53 (11763286_at) / Fold change /veh TMEM53 (11763286_at) / RFU MAGEB2 (11727129_at) / Fold change /veh MAGEB2 (11727129_at) / RFU TMEM200A (11744735_a_at) / Fold change /veh TMEM200A (11744735_a_at) / RFU CCDC152 (11751479_a_at) / Fold change /veh CCDC152 (11751479_a_at) / RFU FAM211A (11726209_a_at) / Fold change /veh FAM211A (11726209_a_at) / RFU RGS16 (11746705_a_at) / Fold change /veh RGS16 (11746705_a_at) / RFU VCAN (11755009_s_at) / Fold change /veh VCAN (11755009_s_at) / RFU RHOB (11743442_s_at) / Fold change /veh RHOB (11743442_s_at) / RFU RGS16 (11720943_a_at) / Fold change /veh RGS16 (11720943_a_at) / RFU RGS16 (11720944_at) / Fold change /veh RGS16 (11720944_at) / RFU, VPS4B / Fold change vs veh, VPS4B / RFU, CREB1 / Fold change vs veh, CREB1 / RFU, DNAJC13 / Fold change vs veh, DNAJC13 / RFU, GNAQ / Fold change vs veh, GNAQ / RFU, CDK5R1 / Fold change vs veh, CDK5R1 / RFU, ZRANB3 / Fold change vs veh, ZRANB3 / RFU, CUL4A / Fold change vs veh, CUL4A / RFU, CCNY / Fold change vs veh, CCNY / RFU, UFL1 / Fold change vs veh, UFL1 / RFU, COG3 / Fold change vs veh, COG3 / RFU, DIAPH2 / Fold change vs veh, DIAPH2 / RFU, SKA2 / Fold change vs veh, SKA2 / RFU, AFF3 / Fold change vs veh, AFF3 / RFU, LMF1 / Fold change vs veh, LMF1 / RFU, IPO11 / Fold change vs veh, IPO11 / RFU, DFFB / Fold change vs veh, DFFB / RFU, FOXP1 / Fold change vs veh, FOXP1 / RFU, CARD8 / Fold change vs veh, CARD8 / RFU, STRN3 / Fold change vs veh, STRN3 / RFU, ADK / Fold change vs veh, ADK / RFU, RASSF2 / Fold change vs veh, RASSF2 / RFU, WIPF1 / Fold change vs veh, WIPF1 / RFU, LARP1B / Fold change vs veh, LARP1B / RFU, RASA1 / Fold change vs veh, RASA1 / RFU, RB1 / Fold change vs veh, RB1 / RFU, PPFIA1 / Fold change vs veh, PPFIA1 / RFU, MAT2A / Fold change vs veh, MAT2A / RFU, CCT5 / Fold change vs veh, CCT5 / RFU, WDR92 / Fold change vs veh, WDR92 / RFU, CUX1 / Fold change vs veh, CUX1 / RFU, TTC7A / Fold change vs veh, TTC7A / RFU, TMEM135 / Fold change vs veh, TMEM135 / RFU, DEPTOR / Fold change vs veh, DEPTOR / RFU, CPM / Fold change vs veh, CPM / RFU, DNAJB6 / Fold change vs veh, DNAJB6 / RFU, CACNA2D3 / Fold change vs veh, CACNA2D3 / RFU, DTX4 / Fold change vs veh, DTX4 / RFU, TFCP2 / Fold change vs veh, TFCP2 / RFU, GMCL1 /// GMCL1P1 / Fold change vs veh, GMCL1 /// GMCL1P1 / RFU, AEBP2 / Fold change vs veh, AEBP2 / RFU, SNHG1 /// SNORD22 /// SNORD25 /// SNORD26 /// SNORD27 /// SNORD28 /// SNORD29 /// SNORD31 / Fold change vs veh, SNHG1 /// SNORD22 /// SNORD25 /// SNORD26 /// SNORD27 /// SNORD28 /// SNORD29 /// SNORD31 / Fold change (Aza/veh), C12orf56 (ProbeSet 11735607_a_at) / Fold change (ACY-1035/veh), C12orf56 (ProbeSet 11735607_a_at) / Fold change (Aza/veh), FGFR1OP (ProbeSet 11751329_s_at) / Fold change (ACY-1035/veh), FGFR1OP (ProbeSet 11751329_s_at) / Fold change (Aza/veh), VPS36 (ProbeSet 11739960_a_at) / Fold change (ACY-1035/veh), VPS36 (ProbeSet 11739960_a_at) / RFU SYPL1 (11715823_x_at) / Fold change /veh SYPL1 (11715823_x_at) / RFU IGFBP7 (11715501_s_at) / Fold change /veh IGFBP7 (11715501_s_at) / RFU REEP3 (11722064_at) / Fold change /veh REEP3 (11722064_at) / RFU IGLL1 (11728026_x_at) / Fold change /veh IGLL1 (11728026_x_at): dose or concentration left out as unconfirmed
Conditions: ProbeSet 11743882_a_at; LIST D

Nc1ccc(-c2cccs2)cc1NC(=O)c1ccc2c(c1)cc(C1CC1)n2CCN1CCOCC1 [ACY-1035]
RFU, STRN3: 114.91 RFU

Source: PMC5218480 (PLoS ONE, 2017)
